Results from patent publication US20110178104A1, “Anti-Heparin Compounds” (POLYMEDIX INC., priority 2010, published 2011).
pEC50: −log10 of the molar value. In brackets after ≈: the same amount, converted by molar mass. Several values for one entry are separate records, joined by “and”; a condition that tells them apart may be missing. Identical values can stand only once.

Tests used:
UFH [1] = test: FXa amidolytic assay in human plasma, UFH; format: biochemical; details: UFH 4 μg/mL
Description: (§1) Eight parts of pooled human plasma was supplemented with 1 part LMWH or UFH at final concentrations of 4 μg/mL, or fondarinux at a final concentration of 1.25 μg/mL. One 1 μL sample of test agent was then added to 9 μL of supplemented plasma (test agent concentration ranges=0.156 to 20 μg/mL) and mixed. The supplemented plasmas were analyzed immediately in clotting and amidolytic assays as described below. All samples were performed in duplicate.
FXa Amidolytic Assay: Bovine factor Xa was added to supplemented plasma and incubated for 5 minutes at 37° C. Spectrozyme FXa substrate was added and the optical density change at 405 nm was measured for 30 seconds. % factor Xa inhibition is calculated using the following equation:
(§2) % Inhibition=[(ODbaseline−ODsample)/ODbaseline]×100.

[2] = system: unfractionated heparin (UFH); test: aPTT clotting assay, UFH 0.2 U/mL in plasma (Example 7); format: biochemical; details: UFH 0.2 U/mL in plasma
Description: (§3) aPTT clotting Assay. Unfractionated heparin was mixed with plasma at a final concentration of 0.2 U/mL. […] The ACL Elite Hemostasis analyzer (Beckman Coulter™) was used to add aPTT reagent (HemosIL SynthASil) to supplemented plasma. Clotting was initiated by addition of CaCl2 and time to clot was recorded.

enoxaparin (ENOX) = test: FXa chromogenic assay (absence of plasma), enoxaparin; details: enoxaparin 0.1 μg/mL, absence of plasma
fondaparinux (FONDAPX) = test: FXa chromogenic assay (absence of plasma), fondaparinux; details: fondaparinux 0.02 μg/mL, absence of plasma
enoxaparin [3] = test: FXa amidolytic assay in human plasma, enoxaparin; format: biochemical; details: enoxaparin 10 μg/mL, at a concentration of about 50 μg/mL
UFH [4] = test: FIIa amidolytic assay in human plasma, UFH; format: biochemical; details: UFH 4 μg/mL
Description: as §1
FIIa Amidolytic Assay. Human thrombin was added to supplemented plasma and incubated for 1 minute at 37° C. Spectrozyme TH substrate was added and the optical density change at 405 nm was measured for 30 seconds in a SpectraMax 250 instrument. % factor IIa inhibition was calculated using the following equation:
as §2

UFH [5] = test: FXa amidolytic assay (Example 10), UFH; details: read-out: Heparin FXa uM EC50; UFH 0.03 units/mL; human antithrombin, bovine Factor Xa
Unfractionated heparin = test: aPTT clotting assay, UFH 0.4 U/mL in plasma (Example 10); format: biochemical; details: unfractionated heparin 0.4 U/mL in plasma; aPTT clotting
Description: as §3, with “Assay:” for “Assay.”, “0.4 U/mL (or concentration which increases aPTT time to between 120 and 300 seconds).” for “0.2 U/mL.”

fondaparinux = test: FXa amidolytic assay (Example 10), fondaparinux; details: read-out: Fondap FXa EC50; fondaparinux 0.02 μg/mL; human antithrombin, bovine Factor Xa
[6] = Cytotoxicity colorimetric assay, HepG2; format: cell-based, human; details: human, HepG2 cells, one hour in serum-free media
In short: (§4)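 HepG2 cells (3×10^4/well, MEM + 10% FBS) and NIH/3T3 cells (2×10^4/well, DMEM + 10% BCS) were exposed to compound for 1 h in serum-free medium. Viability read by tetrazolium-to-formazan bioreduction after return to serum medium; EC50 from a four-parameter logistic fit.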

enoxaparin [7] = test: FXa amidolytic assay (Example 10), enoxaparin; details: read-out: Enox FXa EC50; enoxaparin 0.1 ug/ml; human antithrombin, bovine Factor Xa
[8] = Cytotoxicity colorimetric assay, NIH/3T3; format: cell-based, mouse; details: mouse, NIH/3T3 cells, one hour in serum-free media
In short: as §4

tinzaparin = test: FXa amidolytic assay (Example 10), tinzaparin; details: read-out: Tinzap FXa EC50; tinzaparin 0.1 ug/ml; human antithrombin, bovine Factor Xa
[9] = system: isolated human erythrocytes; test: cells; format: cell-based; details: Homo sapiens, Erythrocyte, 1 h, human RBC, 1 hour at 37° C.; read-out: Hemolysis EC50
In short: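 Pooled human red cells, washed and diluted from a 0.22% stock suspension in TBS pH 7.4, were shaken with two-fold dilutions (1000 to 0.48 µg/ml) for 1 h at 37 °C. Released hemoglobin in the supernatant was read at OD405. EC50 came from a four-parameter logistic fit, with melittin as positive control.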

UFH [10] = test: In vivo neutralization of unfractionated heparin in the rat; details: UFH 100 U/kg IV, 1 mg/kg dose IV
Description: The male Sprague-Dawley rats used in this study were obtained from Charles River Laboratories, Raleigh. They were nine-weeks-old at the start of the study and their weights ranged from 279-334 g. Rats were pre-treated with UFH administered by IV injection in a tail vein at 100 U/kg in a dose volume of 1 mL/kg. The rats were then treated with a single IV injection of saline, protamine or the appropriate test compound at doses of 0.25, 0.5 and 1.0 mg/kg. All treatments were dosed in a volume of 1 mL/kg. Blood was collected via the orbital sinus from three rats per group at the following time points after treatment: predose, 1, 3, 10, 30 and 60. At each time point, 1 mL of blood was collected from each animal into a single tube. The blood was analyzed using an AMEX Destiny Plus Coagulation Analyzer for activated partial thromboplastintime (APTT) and anti-Factor Xa.

[11] = at a concentration of greater than about 25 μg/mL

Row | UFH (aPTT) EC50 [2] | ENOX (FXa) EC50 (enoxaparin (ENOX)) | FONDAPX (FXa) EC50 (fondaparinux (FONDAPX)) | EC50 (UFH [5]) | pEC50 (Unfractionated heparin) | pEC50 (fondaparinux) | pEC50 (enoxaparin [7]) | pEC50 (tinzaparin) | SMILES | percent of the anticoagulant effect of UFH inhibited (FXa amidolytic) (UFH [1]; [11]) | concentration antagonizing about 50% of the anticoagulant effect of UFH (FXa amidolytic) (UFH [1]; human plasma) | percent of the anticoagulant effect of enoxaparin inhibited (FXa amidolytic) (enoxaparin [3]) | percent of the anticoagulant effect of UFH inhibited (FIIa amidolytic) (UFH [4]; [11]) | concentration antagonizing about 50% of the anticoagulant effect of UFH (FIIa amidolytic) (UFH [4]; human plasma) | EC50 at 1 h [6] | EC50 at 1 h [8] | EC50 [9] | neutralization of UFH activity in aPTT assays (UFH [10])
1 | 2.26 µg/mL | 0.29 µg/mL | 6.19 µg/mL | – | – | – | – | – | COc1ccc(NC(=O)[C@H](CCCCN)NC(=O)c2cc(NC(=O)[C@H](CCCCN)NC(=O)c3cc(NC(=O)[C@H](CCCCN)NC(=O)c4cc(NC(=O)[C@@H](N)CCCCN)ccc4OC)ccc3OC)ccc2OC)cc1C(N)=O [Compound 8] | 90%-100% | 12 to 18 µg/mL | about 60% | 98%-100% | 14 to 20 µg/mL | – | – | – | –
2 | – | – | – | 0.151 µM | 5.77 and 5.85 | 5.81 and 5.86 | 6.73 and 6.70 | 6.83 and 6.92 | COc1cc(OC)c(C(=O)N[C@H]2CC[C@H](NC(=O)c3ccc(OCCCCCN)cc3OCCCCCN)CC2)cc1C(=O)N[C@H]1CC[C@H](NC(=O)c2ccc(OCCCCCN)cc2OCCCCCN)CC1 [Compound 335] | – | – | – | – | – | 700 µg/mL (≈ 679 µM) | 120 µg/mL (≈ 116 µM) | > 1000 µg/mL | complete neutralization
3 | 2.41 µg/mL | 0.32 µg/mL | 1.22 µg/mL | – | – | – | – | – | COc1ccc(NC(=O)[C@@H](CCCNC(=N)N)NC(=O)c2cc(NC(=O)[C@@H](CCCNC(=N)N)NC(=O)c3cc(NC(=O)[C@@H](CCCNC(=N)N)NC(=O)c4cc(NC(=O)[C@@H](C)N)ccc4OC)ccc3OC)ccc2OC)cc1C(N)=O [Compound 16] | – | – | about 20% | – | – | – | – | – | –
